The test system of data set [1] is Mäuse-L 1210-Leukämiezellen. As to the kind of experiment: Proliferation test (14C-thymidine incorporation). The format is cell-based. Particulars: Mus musculus, read-out: IC50 Proliferations-test. The text has this:
(§1) Die Ermittlung der zytostatischen Aktivität der Kesarirhodine erfolgte in der nachfolgend beschriebenen Weise an Mäuse-L 1210-Leukämiezellen.
Bei dieser in vitro-Methode ist es nach der Inkubation der Zellen mit verschiedenen Konzentrationen der Prüfsubstanz möglich, die eingebaute Menge eines radioaktiv markierten DNS-Vorläufers (z.B. 14C-Thymidin) in einer wachsenden Zelle zu bestimmen. Als Kontrolle dienen dem gleichen Verfahren unterzogenen unbehandelte L 1210-Zellen. Die Methode wird nachstehend kurz zusammengefaßt: • L 1210-Zellen in exponentieller Wachstumsphase (5 x 10^3/ml in RPMI 1640) werden 72 Stunden lang (37°C, 5 % C02, 95 % relative Feuchtigkeit) in einer 96-Loch-Mikrotiterplatte mit unterschiedlichen Konzentrationen der Prüfsubstanz inkubiert. Als Kontrollen werden Zellen verwendet, die lediglich mit dem frischen Medium in Berührung gebracht werden. Es werden vier Löcher für jede Medikamentenkonzentration und Kontrolle angelegt. Nach 65 Stunden werden 50 µl 14C Thymidin (1,5 oCi/ml) zugefügt, um die Zell-DNS zu markieren. Nach 7 Stunden Inkubation werden die Zellen geerntet, die DNS mit 5 % Trichloressigsäure abgetrennt und mit Wasser und Methanol gewaschen. Nach dem Trocknen bei 50°C wird die Szintillationszahl mit 5 ml Szintillationsflüssigkeit bestimmt.
Die Ergebnisse werden als Quotient des Szintillationsindex nach der Inkubation mit den Testsubstanzen mit dem der Kontrollsubstanz ausgedrückt. Mit den ermittelten Werten wird eine Dosiswirkungskurve gezeichnet und der Wert IC50 d.h. die Konzentration der Prüfsubstanz, die den Einbau von markiertem Thymidin im Vergleich zur Kontrolle um 50 % hemmt, graphisch ermittelt. Die IC50-Werte sind denen von Adriamycin in der folgenden Tabelle III gegenübergestellt.
(In general: Incorporation of labelled thymidine or its analogues reports DNA synthesis.)

For data set [2], the system named is Mäuse-L 1210-Leukämiezellen. As to the kind of experiment: Stem cell test (colony formation in soft agar, continuous incubation). The format is cell-based. Particulars: Mus musculus, L1210, 168 h, read-out: IC50 Stammzellentest 7 Tage Inkubation.
Excerpt: as §1
Diese Methode dient zum Nachweis der Wirkung der Prüfsubstanz auf das Wachstum von Leukämiezellen über mehrere Generationen (da die Dauer eines Zellzyklus 10 - 12 Stunden beträgt, werden innerhalb des Untersuchungszeitraumes von 7 Tagen rund 14 aufeinanderfolgende Generationen erfaßt).
In diesem Test beruht die Wirkung von zytotoxischen Substanzen auf der Verminderung der Zahl beobachtbarer Kolonien im Vergleich zur unbehandelten Kontrolle. Es wird folgende Methodik verwendet: • Pro Platte werden 500 L 1210-Leukämiezellen verwendet. Die Experimente werden bei kontinuierlicher Inkubation mit verschiedenen Konzentrationen der Prüfsubstanz durchgeführt, wobei die Substanz vor dem Aufbringen der Zellen auf die Platte der oberen Agarschicht beigemischt wird. Die Platten werden 7 Tage lang in einem Brutschrank gelagert (37°C, 5 % C023 95 % relative Luftfeuchtigkeit). Anschließend wird die Anzahl der entstandenen Kolonien mit einem Durchmesser von mehr als 60 um mit einem umgekehrten Mikroskop gezählt. Die Resultate werden als Prozentsatz der auf den behandelten Platten gebildeten Kolonien im Vergleich zu denen der unbehandelten Kontrolle ausgedrückt. Mit den ermittelten Werten wird eine Dosiswirkungskurve gezeichnet, aus welcher der IC50-Wert graphisch ermittelt wird. Die IC50-Werte der Kesarirhodine werden in Tabelle III mit denen von Adriamycin verglichen.

The test system of data set [3] is Bacillus subtilis. Kind of data set: Bacteriostatic activity, agar well diffusion (inhibition zone). The format is cell-based. Particulars: 1 mg/ml solution in a 6 mm well in agar containing Bacillus subtilis; read-out: Hofdurchmesser. The procedure: (§2) Bestimmt wurde die bakteriostatische Wirkung von Kesarirhodin. Die Resultate, die als Durchmesser (in Millimetern) der Hemmhöfe, erzeugt durch die Substanz in Form einer 1 mg/ml-Lösung in einem Loch von 6 mm Durchmesser in Agar, das den Testorganismus enthält, angegeben sind, werden in der nachfolgenden Tabelle, Tabelle II, dargestellt. Kesarirhodine sind gegen gram-positive Bakterien und Pilze wirksam und können deshalb als Antibiotika zur Behandlung von Pilz- und Staphylokokken-Infektionen, Diphterie, Pneumonie usw. eingesetzt werden.
A general note: A growth-free zone around the sample is the usual read-out of agar diffusion tests.

In data set [4] the test system is Staphylococcus aureus 209P. The description is as above. It counts as cell-based. Particulars: 1 mg/ml solution in a 6 mm well in agar containing Staphylococcus aureus 209P; read-out: Hofdurchmesser. As to the method: as §2
Data set [5] deals with Candida albicans. As to the kind of experiment: Agar well diffusion (inhibition zone). The format is cell-based. Particulars: 1 mg/ml solution in a 6 mm well in agar containing Candida albicans; read-out: Hofdurchmesser. The procedure:
as §2

The nature of data set [6]: Solubility in solvents (qualitative). It counts as physicochemical.
[7] abbreviates: L1210, L 1210 cells, 72 h incubation, 14C-thymidine incorporation, read graphically from dose-response curve.
Setting [8] is: 500 L 1210 cells per plate, soft agar, continuous incubation 7 days, colonies > 60 µm.
Setting [9] is: in Hexan (n-Hexan) und Petroläther (Petroleumäther).
The mark [10] stands for this setting: in Methanol, Aceton, Äthylacetat, Chloroform und schwachen Säuren.

Each structure is given as a SMILES string. ≈ marks a conversion by molar mass, not a printed value.

As for `COc1cccc2c1C(=O)c1c(O)c3c(c(O)c1C2=O)C[C@@](O)(C(=O)CO)C[C@@H]3O[C@H]1C[C@H](N)[C@H](O)[C@H](C)O1` [Adriamycin, reference compound], the IC50 in data set [1] (L1210, 72 h) is 0.006 µg/mL (≈ 0.011 µM); in data set [2], 0.022 µg/mL (≈ 0.0405 µM).

As for `CC[C@]1(O)Cc2c(O)c3c(c(O)c2[C@@H](O[C@H]2C[C@H](N(C)C)[C@H](O[C@H]4C[C@H](O)[C@H](O[C@H]5CC[C@H](O)[C@H](C)O5)[C@H](C)O4)[C@H](C)O2)C1)C(=O)c1c(O)cccc1C3=O` [Kesarirhodin A], the zone of inhibition at 1000 µg/mL was 17 mm in data set [3], 15 mm in data set [4] and 20 mm in data set [5]. Also, the IC50 in data set [1] (setting [7]) and in data set [2] (setting [8]) was 0.031 µg/mL (≈ 0.0402 µM) in each case. Moreover, the results for the Löslichkeit result in data set [6] (setting [9]) and in data set [6] (setting [10]) were “wenig löslich” and “löslich”, respectively.

As for `CC[C@]1(O)Cc2c(O)c3c(c(O)c2[C@@H](O[C@H]2C[C@H](N(C)C)[C@H](O[C@H]4CC[C@H](O[C@H]5CC[C@H](O)[C@H](C)O5)[C@H](C)O4)[C@H](C)O2)C1)C(=O)c1c(O)cccc1C3=O` [Kesarirhodin B], the figures for the zone of inhibition at 1000 µg/mL in data set [3], in data set [4] and in data set [5] were 17 mm, 17 mm and 20 mm, respectively. For the same compound, the results for the IC50 in data set [1] (setting [7]) and in data set [2] (setting [8]) were 0.1 µg/mL (≈ 0.132 µM) and 0.028 µg/mL (≈ 0.037 µM), respectively. For the same compound, the Löslichkeit result in data set [6] (setting [9]) was “wenig löslich”; in data set [6] (setting [10]), “löslich”.

For the origin of these results see patent EP0186807A2, “Anthracycline derivatives, their microbiological preparation and their use as medicines” (HOECHST AKTIENGESELLSCHAFT, priority 1984, dated 1986).
